The source of these data is patent US20040235831A1, “Composition for caring for the hair or the eyelashes, containing a pyrazolecarboxamide compound, use thereof for stimulating the growth of the hair and the eyelashes and/or for reducing their loss” (SOCIETE L'OREAL, S.A., priority 2002, published 2004).

The target of assay [1] is T1, 15-PGDH (Homo sapiens, UniProt P15428).
T1 construct: made in house
T1 sequence (P15428 1-266): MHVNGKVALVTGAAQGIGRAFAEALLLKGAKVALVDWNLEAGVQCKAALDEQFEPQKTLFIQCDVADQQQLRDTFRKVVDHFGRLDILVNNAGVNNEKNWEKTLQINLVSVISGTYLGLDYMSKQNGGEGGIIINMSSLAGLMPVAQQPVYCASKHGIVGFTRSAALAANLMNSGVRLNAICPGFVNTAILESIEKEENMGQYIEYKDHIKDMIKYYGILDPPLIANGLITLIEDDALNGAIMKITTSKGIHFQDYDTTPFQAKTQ
In words: Test on 15-PGDH (spectrophotometric, PGE2/β-NAD, 340 nm). The class given is biochemical. As for the experimental part:
The enzyme 15-PGDH is obtained as described in patent application FR 02/05067 filed in the name of L'Oréal, as a suspension in a medium adjusted to a concentration of 0.3 mg/ml and then blocked at −80° C. For the purposes of the test, this suspension is thawed and stored in ice.
In parallel, a 100 mM, pH 7.4 Tris buffer containing 0.1 mM of dithiothreitol (D5545, Sigma-Aldrich, L'isle D'Abeau Chesne, BP 701, 38297, Saint Quentin Fallavier), 1.5 mM of β-NAD (N6522, Sigma-Aldrich, L'isle D'Abeau Chesne, BP 701, 38297, Saint Quentin Fallavier), and 50 μM of prostaglandin E2 (P4172, Sigma-Aldrich, L'isle D'Abeau Chesne, BP 701, 38297, Saint Quentin Fallavier) is prepared.
0.965 ml of this buffer (brought to 37° C. beforehand) is introduced into the cuvette of a spectrophotometer (Perkin-Elmer, Lambda 2) thermostatically maintained at 37° C., the measuring wavelength of which is set at 340 nm. 0.035 ml of enzymatic suspension at 37° C. is introduced into the cuvette concomitantly with the recording (corresponding to an increase in the optical density at 340 nm). The maximum reaction rate is recorded.

In assay [2] the target is T2, PGF synthase (PGFS) (Homo sapiens, UniProt P42330).
T2 construct: made in house
T2 sequence (P42330 1-323): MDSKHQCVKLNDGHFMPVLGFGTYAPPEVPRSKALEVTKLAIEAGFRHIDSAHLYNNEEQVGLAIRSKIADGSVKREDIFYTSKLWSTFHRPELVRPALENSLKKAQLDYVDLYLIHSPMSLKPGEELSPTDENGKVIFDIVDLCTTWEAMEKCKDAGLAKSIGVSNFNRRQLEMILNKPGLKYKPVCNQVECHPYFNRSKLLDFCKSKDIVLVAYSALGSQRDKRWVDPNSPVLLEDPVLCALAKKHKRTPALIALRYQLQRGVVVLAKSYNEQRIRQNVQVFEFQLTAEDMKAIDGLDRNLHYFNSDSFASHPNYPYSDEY
In words: Test on PGF synthase (spectrophotometric, 9,10-phenanthrenequinone/β-NADPH, 340 nm). The conditions noted are these: concentration that inhibits 50% of the enzymatic activity of PGF synthase. Type of assay: biochemical. On the procedure: The enzyme PGFS is obtained as described in document FR-A-02/05067, at a concentration of 0.5 mg/ml, as a suspension in a suitable medium, and blocked at −80° C. For the purposes of the test, this suspension is thawed and stored in ice.
In parallel, a 100 mM, pH 6.5 Tris buffer containing 20 μM of 9,10-phenanthrenequinone* (P2896, Sigma-Aldrich, L'isle D'Abeau Chesne, BP 701, 38297, Saint Quentin Fallavier) and 100 μM of β-NADPH (N1630, Sigma-Aldrich, L'isle D'Abeau Chesne, BP 701, 38297, Saint Quentin Fallavier) is prepared in a brown flask (protected from light).
*A stock solution with a titre of 1 mM is prepared in absolute ethanol and brought to 40° C.; the flask is placed in an ultrasound cuvette to facilitate the dissolution of the product.
0.950 ml of this buffer (brought to 37° C. beforehand) is introduced into the cuvette of a spectrophotometer (Perkin-Elmer, Lambda 2) thermostatically maintained at 37° C., the measuring wavelength of which is set at 340 nm. 0.05 ml of enzymatic suspension at 37° C. is introduced into the cuvette concomitantly with the recording (corresponding to a reduction in the optical density at 340 nm). The maximum reaction rate is recorded.
The test values (containing compound (I)) are compared with the control value (without compound (I)); the results indicated represent the percentage of inhibition of PGFS at a concentration of 50 μM.

As for `COc1ccc(-n2ncc(C(=O)N3CCN(C)CC3)c2C)cc1` [Compound 2], the Selectivity in assay [1] (IC50fs/IC50dh ratio (PGF synthase vs 15-PGDH)) is given as greater than 7.5. In addition, the IC50 in assay [1] (concentration that inhibits 50% of the enzymatic activity of 15-PGDH) was 10 µM; in assay [2], greater than 75 µM.

In general, IC50 refers to the concentration needed to halve the response being measured. A low value points to inhibition by little substance.
